From US20060030719A1, “Cis-3,5-disubstituted-dihydro-furan-2-ones and the preparation and use thereof” (priority 2004, published 2006) come the findings set out here.

As usually defined, the melting point is the temperature, or range, at which the solid turns liquid.

For the compound `C[C@@H]1C[C@H](CC2CCCCC2)C(=O)O1` (relative stereo) [Example 20, cis-3-cyclohexylmethyl-5-methyl-dihydro-furan-2-one], the melting point fell in the range of 60 to 62 °C.
